From ChEMBL document CHEMBL2440076, “New triarylpyrazoles as broad-spectrum anticancer agents: design, synthesis, and biological evaluation” (Eur J Med Chem, 2013)

How the values were obtained:
Assay type in all cases: functional
IGROV-1 = experiment: Growth inhibition of human IGROV1 cells assessed as cell growth at 10 uM after 48 hrs by sulforhodamine B assay; conditions: IGROV-1, 48 h, read-out: Activity
COLO 205 = experiment: Growth inhibition of human COLO205 cells assessed as cell growth at 10 uM after 48 hrs by sulforhodamine B assay; conditions: COLO 205, 48 h, read-out: Activity
K562 = experiment: Growth inhibition of human K562 cells assessed as cell growth at 10 uM after 48 hrs by sulforhodamine B assay; conditions: K562, 48 h, read-out: Activity
CCRF-CEM = experiment: Growth inhibition of human CCRF-CEM cells assessed as cell growth at 10 uM after 48 hrs by sulforhodamine B assay; conditions: read-out: Activity
U-251 = experiment: Growth inhibition of human U251 cells assessed as cell growth at 10 uM after 48 hrs by sulforhodamine B assay; conditions: U-251, 48 h, read-out: Activity
MCF7 = experiment: Growth inhibition of human MCF7 cells assessed as cell growth at 10 uM after 48 hrs by sulforhodamine B assay; conditions: MCF7, 48 h, read-out: Activity
A498 = experiment: Growth inhibition of human A498 cells assessed as cell growth at 10 uM after 48 hrs by sulforhodamine B assay; conditions: A498, 48 h, read-out: Activity
MDA-MB-231 = experiment: Growth inhibition of human MDA-MB-231 cells assessed as cell growth at 10 uM after 48 hrs by sulforhodamine B assay; conditions: MDA-MB-231, 48 h, read-out: Activity
CAKI-1 = experiment: Growth inhibition of human CAKI-1 cells assessed as cell growth at 10 uM after 48 hrs by sulforhodamine B assay; conditions: CAKI-1, 48 h, read-out: Activity
NCI-H226 = experiment: Growth inhibition of human NCI-H226 cells assessed as cell growth at 10 uM after 48 hrs by sulforhodamine B assay; conditions: NCI-H226, 48 h, read-out: Activity
HCT-116 = experiment: Growth inhibition of human HCT116 cells assessed as cell growth at 10 uM after 48 hrs by sulforhodamine B assay; conditions: HCT-116, 48 h, read-out: Activity
Malme-3M = experiment: Growth inhibition of human MALME-3M cells assessed as cell growth at 10 uM after 48 hrs by sulforhodamine B assay; conditions: read-out: Activity
[1] = Growth inhibition of human NCI-ADR-RES cells assessed as cell growth at 10 uM after 48 hrs by sulforhodamine B assay; conditions: read-out: Activity
ACHN = experiment: Growth inhibition of human ACHN cells assessed as cell growth at 10 uM after 48 hrs by sulforhodamine B assay; conditions: read-out: Activity
DU-145 = experiment: Growth inhibition of human DU145 cells assessed as cell growth at 10 uM after 48 hrs by sulforhodamine B assay; conditions: DU-145, 48 h, read-out: Activity
T47D = experiment: Growth inhibition of human T47D cells assessed as cell growth at 10 uM after 48 hrs by sulforhodamine B assay; conditions: read-out: Activity
SK-OV-3 = experiment: Growth inhibition of human SKOV3 cells assessed as cell growth at 10 uM after 48 hrs by sulforhodamine B assay; conditions: SK-OV-3, 48 h, read-out: Activity

| Compound | growth at 10 µM (IGROV-1) [%] | growth at 10 µM (COLO 205) [%] | growth at 10 µM (K562) [%] | growth at 10 µM (CCRF-CEM) [%] | growth at 10 µM (U-251) [%] | growth at 10 µM (MCF7) [%] | growth at 10 µM (A498) [%] | growth at 10 µM (MDA-MB-231) [%] | growth at 10 µM (CAKI-1) [%] | growth at 10 µM (NCI-H226) [%] | growth at 10 µM (HCT-116) [%] | growth at 10 µM (Malme-3M) [%] | growth at 10 µM [1] [%] | growth at 10 µM (ACHN) [%] | growth at 10 µM (DU-145) [%] | growth at 10 µM (T47D) [%] | growth at 10 µM (SK-OV-3) [%] |
| --- | --- | --- | --- | --- | --- | --- | --- | --- | --- | --- | --- | --- | --- | --- | --- | --- | --- |
| COc1cc(-c2nn(-c3cccc(NC(=O)Nc4ccccc4)c3)cc2-c2ccncc2)ccc1Cl | 86.5 | 92.4 | 45.4 | 83.3 | 85 | 88.8 | 79.7 | 88 | 96.1 | 92.3 | 87.2 | 57.7 | 72.8 | 78.2 | 101 | 75.6 | 97.1 |
| Cc1cc(C(=O)Nc2cccc(-n3cc(-c4ccncc4)c(-c4ccc(Cl)c(O)c4)n3)c2)ccc1Br | 101 | 102 | 91.4 | 87.2 | 92.1 | 85.4 | 102 | 70 | 93.9 | 101 | 94.4 | 82.6 | 99.7 | 91.8 | 103 | 87.7 | 100 |
| O=C(Nc1cccc(-n2cc(-c3ccncc3)c(-c3ccc(Cl)c(O)c3)n2)c1)c1ccc(Cl)c(C(F)(F)F)c1 | 98.4 | 104 | 105 | 98.8 | 95.9 | 93.9 | 105 | 73.5 | 100 | 103 | 100 | 79.5 | 104 | 86.6 | 95 | 100 | 102 |
